Source: PubChem BioAssay (NCI)
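Protocol summary: plate cells (96-well), add compound at 5 concentrations, incubate 48 h, interpolate endpoints linearly. TGI: concentration producing complete growth inhibition.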

Key:
Assay in all cases: DTP human tumour cell line panel, 48 h
[1] = tested on: NCI-H522 lung
[2] = tested on: OVCAR-8 ovarian
[3] = tested on: MALME-3M melanoma
[4] = tested on: U251 CNS
[5] = tested on: RXF 393 renal
[6] = tested on: SF-539 CNS
[7] = tested on: ACHN renal
[8] = tested on: HOP-62 NSCLC
[9] = tested on: CCRF-CEM leukemia
[10] = tested on: HCC-2998 colon
[11] = tested on: HT29 colon
[12] = tested on: OVCAR-5 ovarian
[13] = tested on: SN12C renal
[14] = tested on: OVCAR-4 ovarian
[15] = tested on: IGROV1 ovarian
[16] = tested on: BT-549 breast
[17] = tested on: EKVX NSCLC
[18] = tested on: SK-MEL-28 melanoma
[19] = tested on: NCI-H460 lung
[20] = tested on: UO-31 renal
[21] = tested on: K-562 leukemia
[22] = tested on: RPMI-8226 leukemia
[23] = tested on: NCI/ADR-RES ovarian
[24] = tested on: MDA-MB-231 breast
[25] = tested on: MOLT-4 leukemia
[26] = tested on: A549 NSCLC
[27] = tested on: COLO 205 colon
[28] = tested on: SNB-19 CNS
[29] = tested on: DU-145 prostate
[30] = tested on: SK-MEL-2 melanoma
[31] = tested on: HL-60(TB) leukemia
[32] = tested on: SF-268 CNS
[33] = tested on: HCT-15 colon
[34] = tested on: MDA-MB-435
[35] = tested on: KM12 colon
[36] = tested on: HS 578T breast
[37] = tested on: SW-620 colon
[38] = tested on: CAKI-1 renal
[39] = tested on: UACC-62 melanoma
[40] = tested on: SF-295 CNS
[41] = tested on: SK-OV-3 ovarian
[42] = tested on: T-47D breast
[43] = tested on: UACC-257 melanoma
[44] = tested on: MDA-N
[45] = tested on: OVCAR-3 ovarian
[46] = tested on: HCT-116 colon
[47] = tested on: LOX IMVI melanoma
[48] = tested on: PC-3 prostate
[49] = tested on: NCI-H226 lung
[50] = tested on: HOP-92 NSCLC
[51] = tested on: M14 melanoma
[52] = tested on: NCI-H23 lung
[53] = tested on: MCF7 breast
[54] = tested on: SR leukemia
[55] = tested on: TK-10 renal
[56] = tested on: SNB-75 CNS
[57] = tested on: SK-MEL-5 melanoma
[58] = tested on: 786-0 renal
[59] = tested on: A498 renal

COc1ccc2c(c1)CC1Cc3ccccc3CCN1C2 (configuration not stated)
TGI [1]: 63.6 µM
TGI [2]: > 100 µM
TGI [3]: > 100 µM
TGI [4]: > 100 µM
TGI [5]: > 100 µM
TGI [6]: > 100 µM
TGI [7]: > 100 µM
TGI [8]: > 100 µM
TGI [9]: > 100 µM
TGI [10]: > 100 µM
TGI [11]: > 100 µM
TGI [12]: > 100 µM
TGI [13]: > 100 µM
TGI [14]: > 100 µM
TGI [15]: > 100 µM
TGI [16]: > 100 µM
TGI [17]: > 100 µM
TGI [18]: > 100 µM
TGI [19]: > 100 µM
TGI [20]: > 100 µM
TGI [21]: > 100 µM
TGI [22]: 92.3 µM
TGI [23]: > 100 µM
TGI [24]: 63.6 µM
TGI [25]: > 100 µM
TGI [26]: > 100 µM
TGI [27]: > 100 µM
TGI [28]: > 100 µM
TGI [29]: > 100 µM
TGI [30]: > 100 µM
TGI [31]: > 100 µM
TGI [32]: > 100 µM
TGI [33]: > 100 µM
TGI [34]: > 100 µM
TGI [35]: > 100 µM
TGI [36]: > 100 µM
TGI [37]: > 100 µM
TGI [38]: 59.1 µM
TGI [39]: > 100 µM
TGI [40]: > 100 µM
TGI [41]: > 100 µM
TGI [42]: > 100 µM
TGI [43]: > 100 µM
TGI [44]: > 100 µM
TGI [45]: > 100 µM
TGI [46]: > 100 µM
TGI [47]: 51.8 µM
TGI [48]: > 100 µM
TGI [49]: > 100 µM
TGI [50]: > 100 µM
TGI [51]: > 100 µM
TGI [52]: > 100 µM
TGI [53]: > 100 µM
TGI [54]: > 100 µM
TGI [55]: > 100 µM
TGI [56]: > 100 µM
TGI [57]: 41.7 µM

O=C1c2ccccc2C(=O)N1C1(C(=O)NC2(C(=O)O)CCCC2)CCCC1
TGI [1]: > 100 µM
TGI [2]: > 100 µM
TGI [3]: > 100 µM
TGI [4]: > 100 µM
TGI [5]: > 100 µM
TGI [7]: > 100 µM
TGI [8]: > 100 µM
TGI [9]: > 100 µM
TGI [10]: > 100 µM
TGI [11]: > 100 µM
TGI [12]: > 100 µM
TGI [13]: > 100 µM
TGI [58]: > 100 µM
TGI [14]: > 100 µM
TGI [15]: > 100 µM
TGI [16]: > 100 µM
TGI [17]: > 100 µM
TGI [18]: > 100 µM
TGI [20]: > 100 µM
TGI [21]: > 100 µM
TGI [22]: > 100 µM
TGI [23]: > 100 µM
TGI [24]: > 100 µM
TGI [25]: > 100 µM
TGI [26]: > 100 µM
TGI [59]: > 100 µM
TGI [27]: > 100 µM
TGI [28]: > 100 µM
TGI [29]: > 100 µM
TGI [30]: > 100 µM
TGI [32]: > 100 µM
TGI [33]: > 100 µM
TGI [34]: > 100 µM
TGI [35]: > 100 µM
TGI [36]: > 100 µM
TGI [37]: > 100 µM
TGI [38]: > 100 µM
TGI [39]: > 100 µM
TGI [40]: > 100 µM
TGI [41]: > 100 µM
TGI [42]: > 100 µM
TGI [43]: > 100 µM
TGI [44]: > 100 µM
TGI [45]: > 100 µM
TGI [46]: > 100 µM
TGI [47]: > 100 µM
TGI [48]: > 100 µM
TGI [49]: > 100 µM
TGI [51]: > 100 µM
TGI [52]: > 100 µM
TGI [53]: > 100 µM
TGI [54]: > 100 µM
TGI [55]: > 100 µM
TGI [56]: > 100 µM
TGI [57]: > 100 µM
